Results: paper PMC2901233 (Nuclear medicine and biology, 2010)
Values joined by “and” are separate entries in the source; they are usually repeats but may differ in a detail not shown here. Identical values can stand only once. “Also recorded” adds a separate entry of the source.

Assays:
[1] = plasma protein binding by the ultrafiltration method; type: in vitro ADME, baboon (Papio anubis)
[2] = reversed phase HPLC analysis of components of plasma radioactivity; type: in vivo, baboon (Papio anubis)
[3] = type: in vivo, baboon (Papio anubis)
[4] = system: serotonin transporters; assay: SPECT binding potential; type: in vivo, baboon (Papio anubis)
[5] = system: 5-HT transporter; details: cited from earlier work
[6] = system: dopamine transporter; details: cited from earlier work
[7] = system: serotonin transporter
[8] = 3 min after injection, arterial plasma
[9] = 5 min after injection, arterial plasma
[10] = 10 min after injection, arterial plasma
[11] = 30 min after injection, arterial plasma
[12] = 60 min after injection, arterial plasma
[13] = 120 min after injection, arterial plasma
[14] = 180 min after injection, arterial plasma
[15] = 360 min after injection, arterial plasma
[16] = MRTM2 analysis, bolus only study, first animal
[17] = average of equilibrium scans prior to displacement, same animal as MRTM2
[18] = 0.5 mg/kg IV at 8 h post-radiotracer, n=2

SMILES: COC(=O)C1C2CCC(CC1c1ccc(/C=C\I)cc1)N2 (stereo not drawn) [[^123I]p ZIENT, 2β-carbomethoxy-3β-(4′-((Z)-2-iodoethenyl)phenyl)nortropane]
- protein bound in plasma ([1]; first of the two baboons): 93.1± 0.3% and 93%
- protein bound in plasma ([1]; second of the two baboons): 89.8 ± 0.7% and 90%
- Relative proportion of plasma radioactivity, Parent Compound ([2]; 1 min after injection, arterial plasma): 69%
- Relative proportion of plasma radioactivity, Parent Compound [2, 8]: 69%
- Relative proportion of plasma radioactivity, Polar Fraction (metabolite) [2, 8]: 5%
- combined two polar metabolite fractions as percent of total plasma activity ([2]; 3 min post-injection): 31%
- Relative proportion of plasma radioactivity, Parent Compound [2, 9]: 65%
- Relative proportion of plasma radioactivity, Polar Fraction (metabolite) [2, 9]: 10%
- Relative proportion of plasma radioactivity, Parent Compound [2, 10]: 43%
- Relative proportion of plasma radioactivity, Polar Fraction (metabolite) [2, 10]: 41%
- Relative proportion of plasma radioactivity, Parent Compound [2, 11]: 16%
- Relative proportion of plasma radioactivity, Polar Fraction (metabolite) [2, 11]: 78%
- Relative proportion of plasma radioactivity, Parent Compound [2, 12]: 10%
- Relative proportion of plasma radioactivity, Polar Fraction (metabolite) [2, 12]: 87%
- Relative proportion of plasma radioactivity, Parent Compound [2, 13]: 5%
- Relative proportion of plasma radioactivity, Polar Fraction (metabolite) [2, 13]: 94%
- Relative proportion of plasma radioactivity, Parent Compound [2, 14]: 4%
- Relative proportion of plasma radioactivity, Polar Fraction (metabolite) [2, 14]: 95%
- combined two polar metabolite fractions as percent of total plasma activity ([2]; 180 min post-injection): 96%
- Relative proportion of plasma radioactivity, Parent Compound [2, 15]: 3%
- Relative proportion of plasma radioactivity, Polar Fraction (metabolite) [2, 15]: 96%
- time of peak level of radioactivity in arterial plasma ([2]; after bolus injection): 4 to 7 min
- time of peak of the transient fraction ([2]; arterial plasma): 3 to 5 min
- unmetabolized parent as proportion of plasma radioactivity ([2]; at the time of peak level of radioactivity in arterial plasma (4-7 min)): 69%
- lipophilic radiolabeled metabolites entering the brain ([2]; baboon arterial plasma, HPLC): no detection; also recorded: detected no radiometabolites that are capable of entering the brain
- transient fraction at its peak, proportion of plasma radioactivity ([2]; peak at 3-5 min): 26%
- time of peak whole brain uptake ([3]; bolus IV injection): 74 min
- whole brain uptake, percent of injected dose ([3]; bolus IV injection, at peak (74 min)): 2.3%
- time at which equilibrium was established ([3]; bolus to constant infusion at a ratio of 9.0 h): 4 to 8 h
- change per hour at equilibrium ([3]; bolus to constant infusion, between 4-8 h): < 5%
- BPND basal ganglia [4, 16]: 0.97
- BPND brainstem [4, 16]: 1.34
- BPND diencephalon [4, 16]: 1.48
- BPND hippocampus [4, 16]: 0.49
- BPND temporal cortex [4, 16]: 0.39
- BPND basal ganglia [4, 17]: 0.81
- BPND brainstem [4, 17]: 1.34
- BPND diencephalon [4, 17]: 1.04
- BPND hippocampus [4, 17]: 0.82
- BPND temporal cortex [4, 17]: 0.22
- BPND basal ganglia ([4]; second animal): 2.9
- BPND brainstem ([4]; second animal): 4.32
- BPND diencephalon ([4]; second animal): 3.83
- BPND hippocampus ([4]; second animal): 2.07
- BPND temporal cortex ([4]; second animal): 1.28
- SERT binding affinity [5]: ~0.05 nM
- specificity for binding to the 5-HT transporter compared to the dopamine transporter [6]: 100 fold

SMILES: COC(=O)C(c1ccccc1)C1CCCCN1 (centres unmarked) [Methylphenidate, methylphenidate]
- Percent Displacement in [123I]p ZIENT (BPND), Basal Ganglia [7, 18]: -4%
- Percent Displacement in [123I]p ZIENT (BPND), Brainstem [7, 18]: -11%
- Percent Displacement in [123I]p ZIENT (BPND), Diencephalon [7, 18]: -5%
- Percent Displacement in [123I]p ZIENT (BPND), Hippocampus [7, 18]: -8%
- Percent Displacement in [123I]p ZIENT (BPND), Temporal Cortex [7, 18]: -1%
- displacement of [123I]p ZIENT in all regions studied, in words ([7]; IV at 8 h post-radiotracer, fluoxetine 1.5, 2.5, citalopram 5, methylphenidate 0.5, nisoxetine 1 mg/kg): no significant changes
